A melting point compilation (Tetko et al.)

Row | melting point | SMILES
1 | 189 to 191 °C | c1ccc(-c2nnc(-c3ccccc3)[nH]2)cc1
2 | 284 to 286 °C | Cc1[nH]c2c(F)cccc2c(=O)c1C
3 | 207 to 209 °C | Cc1ccc(NS(=O)(=O)c2ccc(Cl)c(C(=O)O)c2)cc1C
4 | 141 to 143 °C | Cc1ccc2c(c1)C(=O)N(C(C)C(=O)O)C2=O (stereo unspecified)
5 | 61 to 63 °C | CS(=O)(=O)OCC1CCOCC1
6 | 91 to 93 °C | Cc1cccc(NCCC(N)=O)c1
7 | 189 to 191 °C | Cc1nn(-c2ccccc2)c2nc(Cl)c(C=O)cc12
8 | 88 to 90 °C | O=S(=O)(Cl)c1ccc2nc(Cl)c(Cl)nc2c1
9 | 104 to 106 °C | COC(=O)c1cc(S(=O)(=O)Cl)c(F)cc1F
10 | 80 to 82 °C | Cc1c(N)cccc1CN1CCSCC1
11 | 94 to 96 °C | Cc1nc(N)sc1Cc1ccc(F)cc1
12 | 223 to 227 °C | Nc1nnc(-c2ccc(F)cc2)[nH]1
13 | 77 to 79 °C | O=C(Cc1ccccc1Cl)NCCCO
14 | 254 to 256 °C | O=C(O)c1ccc(-c2nc3ccccc3s2)s1
15 | 42 to 44 °C | Cc1cc(CO)ccc1Cl
16 | 90 to 93 °C | CCOC(=O)c1c(NC(=O)C(C)Cl)sc2c1CCC(C)C2 (stereo unspecified)
17 | 299 to 301 °C | Cc1cc(Br)cc2c(O)c(C(=O)O)cnc12
18 | 87 to 89 °C | CN(C)C(=O)c1cccc(C#N)c1
19 | 205 to 207 °C | O=C(O)c1cccc(NS(=O)(=O)c2ccc3ccccc3c2)c1
20 | 157 to 159 °C | NS(=O)(=O)c1cnn(Cc2ccccc2)c1
21 | 59 to 61 °C | CC(=O)Nc1cccc(C(C)N)c1 (stereo unspecified)
22 | 116 to 118 °C | COc1cc(OC)cc(-c2cc(N)on2)c1
23 | 169 to 171 °C | Nc1nc(CN2CCN(c3nccs3)CC2)cs1
24 | 77 to 79 °C | Nc1ccc(Sc2cccs2)cn1
25 | 112 to 116 °C | Cc1cc(-c2csc(N)n2)c(C)n1CC1CCCO1 (stereo unspecified)
26 | 116 to 118 °C | COc1cc(CC#N)cc(Br)c1OCC(F)(F)F
27 | 198 to 200 °C | Nc1cccc(S(=O)(=O)Nc2ccccc2C(=O)O)c1

The next lines start with the molecule.

Row | SMILES | melting point
28 | O=C(O)C(O)C1CCOCC1 (stereo unspecified) | 79 to 81 °C
29 | O=C(O)C1(c2cccc(F)c2)CC1 | 115 to 117 °C
30 | Cc1oncc1C(=O)NCC(=O)O | 144 to 146 °C
31 | COc1ccc(CCCCC(=O)O)cc1 | 112 to 114 °C
32 | O=C(O)CCNC(=O)c1ccc2[nH]ncc2c1 | 240 to 242 °C
33 | O=C1CCCN1C1CCNCC1 | 84 to 86 °C
34 | CCC(C)(C)C1CCc2c(sc(NC(=O)CCl)c2C#N)C1 (stereo unspecified) | 100 to 102 °C
35 | CC(C)c1ccc2c(c1)[C@@H](O)CCC2 | 89 to 91 °C
36 | Cc1oc(-c2ccsc2)nc1CCl | 101 to 103 °C
37 | CC(CS(=O)(=O)c1ccc(Br)cc1)C(=O)O (stereo unspecified) | 144 to 146 °C
38 | CCCCc1ccc(C(=O)Nc2sccc2C(=O)O)cc1 | 183 to 185 °C
39 | CC(C)(C)OC(=O)NC(C)(C)C(C)(C)C(=O)O | 125 to 127 °C
40 | Cc1ccc(S(=O)(=O)C2(C(=O)O)CCCC2)cc1 | 131 to 133 °C
41 | CN(C)CCCNS(=O)(=O)c1cccc(C#N)c1 | 101 to 103 °C
42 | CC(C)(CO)NCCO | 73 to 75 °C
43 | Cc1ccc(S(=O)(=O)N2CCC(C(=O)O)CC2)cc1 | 181 to 183 °C
44 | NC(=NO)C1CCCc2ccccc21 (stereo unspecified) | 133 to 135 °C
45 | c1ccc2c(c1)CNc1ccccc1-2 | 120 to 122 °C
46 | O=C(O)c1cc(NS(=O)(=O)c2ccc(Cl)c([N+](=O)[O-])c2)ccc1O | 239 to 241 °C
47 | CN1CCN(c2ccc(N)cc2Cl)CC1 | 127 to 129 °C
48 | OC(c1ccccc1)C1CCNCC1 (stereo unspecified) | 171 to 173 °C
49 | O=Cc1cc2c(cc1O)OCO2 | 114 to 116 °C

Row | SMILES | melting point
50 | Nc1c(Br)c(=O)[nH]c(=O)n1Cc1ccccc1 | 235 to 237 °C
51 | Cc1ccc(S(=O)(=O)N2CCCCC2)cc1S(=O)(=O)Cl | 154 to 156 °C
52 | COC(=O)c1ccc(C(N)=S)cc1 | 189 to 191 °C
53 | COc1ccc2c(CC(=O)O)cc(=O)oc2c1 | 183 to 187 °C
54 | COc1ccc(NS(=O)(=O)c2cc(C(=O)O)ccc2C)cc1 | 71 to 73 °C
55 | CNc1ncnc2ccccc12 | 179 to 181 °C
56 | Cc1cc(Cl)c(C(=O)O)cc1C | 180 to 182 °C
57 | O=C(O)c1cc2ccc(F)cc2s1 | 220 to 222 °C
58 | CCc1cc(=O)[nH]c(-c2ccncc2)n1 | 172 to 174 °C
59 | Nc1ccc(Oc2ccc(F)cc2)c2ccncc12 | 149 to 151 °C
60 | Nc1ccc(CC(=O)N2CCOCC2)cc1 | 164 to 166 °C
61 | Cc1ccc(-c2nnc(N)o2)s1 | 247 to 249 °C
62 | COc1ccccc1NC1=NCCCS1 | 83 to 85 °C
63 | O=C(O)c1csc(Nc2ccccn2)n1 | 298 to 300 °C
64 | NCC(O)C1CCCCC1 (stereo unspecified) | 85 to 87 °C
65 | O=C(O)c1nn(-c2ccc(Br)cc2)c2c1CCCC2 | 232 to 234 °C
66 | O=C(O)CCc1ncc(-c2ccccc2)o1 | 148 to 150 °C
67 | CCOc1ccc(C(=O)O)cc1[N+](=O)[O-] | 201 to 203 °C
68 | Oc1ccnc2cc(F)c(F)cc12 | 298 to 300 °C
69 | Nc1nncc(-c2ccc(Br)cc2)n1 | 258 to 260 °C
70 | C=C(CC(=O)OC)C(=O)O | 67 to 69 °C
71 | Nc1ccc2c(c1)CCC(=O)N2Cc1ccc(Cl)cc1 | 142 to 144 °C
